Tests used:
[1] = molecular target: DRD2 (D2 long receptor) wild-type (Homo sapiens, UniProt P14416); experiment: Radioligand competition binding, [3H]-N-methylspiperone, HEK293T membranes; details: DRD2; [3H]-methylspiperone (0.8-1.0 nM); read-out: Ki
DRD3 wild-type = DRD3 wild-type (Homo sapiens, UniProt P35462); experiment: Radioligand competition binding, [3H]-N-methylspiperone; details: DRD3; [3H]-methylspiperone (0.8-1.0 nM); read-out: Ki
[2] = molecular target: T1, DRD4 (D4.4 variant) wild-type (Homo sapiens, UniProt P21917); experiment: as above; details: DRD4; [3H]-methylspiperone (0.8-1.0 nM); read-out: Ki
T1 sequence (P21917 1-419): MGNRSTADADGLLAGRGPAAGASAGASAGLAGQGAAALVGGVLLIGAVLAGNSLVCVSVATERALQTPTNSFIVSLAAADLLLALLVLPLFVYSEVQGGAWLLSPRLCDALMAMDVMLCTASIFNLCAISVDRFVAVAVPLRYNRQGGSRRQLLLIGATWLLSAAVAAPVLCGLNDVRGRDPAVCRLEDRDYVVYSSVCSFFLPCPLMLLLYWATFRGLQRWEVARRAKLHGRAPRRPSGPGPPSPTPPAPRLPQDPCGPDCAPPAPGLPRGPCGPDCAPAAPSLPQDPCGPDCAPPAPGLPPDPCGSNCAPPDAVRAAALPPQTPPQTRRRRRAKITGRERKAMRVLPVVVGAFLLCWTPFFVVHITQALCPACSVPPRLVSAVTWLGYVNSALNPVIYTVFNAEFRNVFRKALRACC

DRD3 F1063.28A = DRD3 F1063.28A (Homo sapiens, UniProt P35462, F106A); experiment: biochemical; type: binding; details: DRD3 F1063.28A; read-out: Ki
Chain of DRD3 F1063.28A (P35462 whole entry F106A): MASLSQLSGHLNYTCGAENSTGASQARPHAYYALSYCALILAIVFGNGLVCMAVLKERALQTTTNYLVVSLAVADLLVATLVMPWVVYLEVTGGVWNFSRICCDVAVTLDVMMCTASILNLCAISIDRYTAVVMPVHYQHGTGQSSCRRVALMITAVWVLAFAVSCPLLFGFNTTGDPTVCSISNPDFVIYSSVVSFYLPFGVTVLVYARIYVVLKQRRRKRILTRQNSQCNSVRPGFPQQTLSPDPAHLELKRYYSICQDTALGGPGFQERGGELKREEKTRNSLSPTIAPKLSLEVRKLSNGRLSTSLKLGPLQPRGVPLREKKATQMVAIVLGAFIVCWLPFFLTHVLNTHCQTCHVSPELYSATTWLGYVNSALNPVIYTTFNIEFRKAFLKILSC

DRD2 (D2 long receptor) [3] = molecular target: T2, DRD2 (D2 long receptor) (Homo sapiens, UniProt P14416); experiment: Gαi/o-mediated cAMP inhibition (GloSensor split-luciferase cAMP reporter), HEK293T; type: cell-based; details: DRD2; agonist, Gαi/o-mediated cAMP inhibition; read-out: EC50 ± SEM;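 also: compounds applied 15 min at room temperature, then luciferin plus 400 nM isoproterenol to raise cAMP through endogenous β2-adrenergic receptors, luminescence read 15 min later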
T2 sequence (P14416 whole entry): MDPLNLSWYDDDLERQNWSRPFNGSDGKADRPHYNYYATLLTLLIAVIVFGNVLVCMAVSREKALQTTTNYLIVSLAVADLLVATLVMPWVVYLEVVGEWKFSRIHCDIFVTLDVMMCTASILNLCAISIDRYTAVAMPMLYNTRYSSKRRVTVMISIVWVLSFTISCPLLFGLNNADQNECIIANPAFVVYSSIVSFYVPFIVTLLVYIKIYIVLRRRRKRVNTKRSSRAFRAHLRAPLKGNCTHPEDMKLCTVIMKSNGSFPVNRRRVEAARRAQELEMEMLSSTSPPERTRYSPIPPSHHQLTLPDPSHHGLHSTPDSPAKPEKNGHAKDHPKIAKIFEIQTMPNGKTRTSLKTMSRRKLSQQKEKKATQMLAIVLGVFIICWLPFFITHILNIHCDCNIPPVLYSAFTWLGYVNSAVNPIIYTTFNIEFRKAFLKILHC

DRD4 (D4.4 variant) [4] = molecular target: T3, DRD4 (D4.4 variant) (Homo sapiens, UniProt P21917); experiment: Gαi/o-mediated cAMP inhibition (GloSensor); type: cell-based; details: DRD4; agonist, cAMP inhibition; read-out: EC50 ± SEM
T3 sequence (P21917 1-419): T1 sequence (P21917 1-419)

DRD2 (D2 long receptor) [5] = molecular target: T2, DRD2 (D2 long receptor); experiment: β-arrestin2 recruitment (Tango), HTLA cells; type: cell-based; details: DRD2; β-arrestin2 recruitment (Tango); read-out: EC50 ± SEM
DRD3 = DRD3 (Homo sapiens, UniProt P35462); experiment: β-arrestin2 recruitment (Tango); type: cell-based; details: DRD3; Tango; read-out: EC50 ± SEM
Chain of DRD3 (P35462 whole entry): as the sequence (P35462 whole entry F106A) above, with A106F counted along it

DRD4 (D4.4 variant) [6] = molecular target: T3, DRD4 (D4.4 variant); experiment: β-arrestin2 recruitment (Tango); type: cell-based; details: DRD4; Tango; read-out: EC50 ± SEM
DRD2 F1103.28A = DRD2 F1103.28A (Homo sapiens, UniProt P14416, F110A); type: binding; design: expressed in transfected cells; host or cells: HEK293T (ATCC CRL-11268); details: DRD2 F1103.28A; read-out: Ki
Chain of DRD2 F1103.28A (P14416 whole entry F110A): as the sequence (P14416 whole entry) above, with F110A counted along it

Chain of DRD3 wild-type (P35462 whole entry): as the sequence (P35462 whole entry F106A) above, with A106F counted along it
Chain of DRD2 (D2 long receptor) wild-type (P14416 whole entry): as the sequence (P14416 whole entry) above

CCOc1cccc2cc(C(C)NCC(C)(C)O)oc12 (racemic) [O4LE2]
> 10 µM: Ki [1] | Ki (DRD3 wild-type) | Ki [2] | Ki (DRD3 F1063.28A) | EC50 (DRD2 (D2 long receptor) [3]) | EC50 (DRD4 (D4.4 variant) [4]) | EC50 (DRD2 (D2 long receptor) [5]) | EC50 (DRD3) | EC50 (DRD4 (D4.4 variant) [6]) | Ki (DRD2 F1103.28A)

CCOc1cccc2cc(C(C)NCCO)oc12 (centres unmarked) [O4LE1]
> 10 µM: Ki [1] | Ki (DRD3 wild-type) | Ki [2] | Ki (DRD3 F1063.28A) | EC50 (DRD2 (D2 long receptor) [3]) | EC50 (DRD4 (D4.4 variant) [4]) | EC50 (DRD2 (D2 long receptor) [5]) | EC50 (DRD3) | EC50 (DRD4 (D4.4 variant) [6]) | Ki (DRD2 F1103.28A)

Reference: PMC7044277 (Nature Communications, 2020)
